SMILES strings stand for the structures.

In this experiment the target is T1, human LPAR1 (Homo sapiens, UniProt Q92633).
T1 construct: expressed in transfected cells
T1 sequence (Q92633 whole entry): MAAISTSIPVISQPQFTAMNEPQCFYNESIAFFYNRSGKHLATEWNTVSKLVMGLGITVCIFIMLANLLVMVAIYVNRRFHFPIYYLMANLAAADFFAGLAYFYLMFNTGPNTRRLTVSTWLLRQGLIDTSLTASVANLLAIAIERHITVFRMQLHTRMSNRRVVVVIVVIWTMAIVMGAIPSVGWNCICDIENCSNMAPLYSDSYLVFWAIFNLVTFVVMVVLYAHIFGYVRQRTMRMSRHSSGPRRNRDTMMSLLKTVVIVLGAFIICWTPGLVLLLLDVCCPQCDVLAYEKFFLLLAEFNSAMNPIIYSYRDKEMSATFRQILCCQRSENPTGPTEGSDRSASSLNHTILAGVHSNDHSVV
Description: Test Example 1: antagonism against response of LPA-induced increase in intracellular Ca2+ concentration in RH7777 cells stably expressing human LPAR1. In kind it is cell-based. The note with it: RH7777 cells stably expressing human LPAR1; Fluo-4 fluorescence, FDSS6000; read-out: IC50 value (concentration producing 50% antagonism against response of LPA-induced increase in intracellular Ca2+ concentration) (converted). The procedure, abridged:
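RH7777 cells stably transfected with human LPAR1 were preincubated with test compound 30 min at 37 °C in HBSS/20 mM HEPES/probenecid/0.05% BSA buffer, pH 7.4, then LPA-stimulated.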
Regarding `CCNc1cc([C@@H](C)N(CCCCc2ccccc2)C(=O)NC2(C(=O)O)CC(F)(F)C2)cc(OCC)c1C#N` [Example 5-115], the IC50 was 2.34 nM.

`CCOc1cc([C@@H](C)N(CC/C=C(\C)c2ccccc2)C(=O)NC2(C(=O)O)CC(F)(F)C2)cc(OCC)c1C` [Example 4-41]: the IC50 is 4.16 nM.

For `CCOc1cc(C(C)N(CCCCc2cc(F)cc(F)c2)C(=O)NC2(C(=O)O)CC(F)(F)C2)cc(OCC)c1C` (centres unmarked) [Example 4-10], the IC50 was 26.4 nM.

Turning to `COc1cc(C(C)N(CCOCc2ccccc2)C(=O)NC2(C(=O)O)CC(OC)C2)c(C)c(OC)c1C1CC1` (centres unmarked) [Example 5-155], the IC50 was 1.1 nM.

As to `CCOc1cc(C(C)N(CCOCc2ccccc2)C(=O)NC2(C(=O)O)CC(OCC)C2)c(Cl)c(OCC)c1C(C)=O` (centres unmarked) [Example 5-212], the IC50 was 1.98 nM.

Turning to `CCOc1cc([C@@H](C)N(CCOCc2ccccc2)C(=O)NC2(C(=O)O)CC(F)(F)C2)cc(OCC)c1C(C)=O` [Example 4-102], the IC50 is 0.815 nM.

`CCOc1cc(C(C)N(CCCCc2ccccc2)C(=O)NC2(C(=O)O)CCCC2)cc(OC(C)C)c1C` (centres unmarked) [Example 1-114]: the IC50 is 128 nM.

For the compound `CCOc1cc([C@@H](C)N(CCCCc2ccccc2)C(=O)NC2(C(=O)O)CC(F)(F)C2)cc(OCC)c1CC` [Example 1-48], the IC50 is 2.47 nM.

Take `CCCOc1cc(OCCC)cc(C(C)N(CCCCc2ccccc2)C(=O)NC2(C(=O)O)CC(F)(F)C2)c1` (centres unmarked) [Example 5-18]: the IC50 was 11 nM.

For `CCOc1cc(C(C)N(CCCc2cccc(F)c2)C(=O)NC2(C(=O)O)CC(F)(F)C2)cc(OCC)c1C` (centres unmarked) [Example 4-7], the IC50 was 25.2 nM.

Regarding `CCOc1cc([C@@H](C)N(CCCC(F)(F)c2ccccc2)C(=O)N[C@]2(C(=O)O)C[C@@H](OC)C2)cc(OCC)c1C(C)=O` [Example 4-65], the IC50 was 5.3 nM.

Consider `CCOc1cc(C(C)N(CCCCc2ccccc2)C(=O)NC2(C(=O)NS(C)(=O)=O)CCCC2)cc(OCC)c1C` (centres unmarked) [Example 7-3], for which the IC50 was 88.3 nM.

As for `CCOc1cc([C@@H](C)N(CCCCc2ccccc2)C(=O)NC2(C(=O)O)CC(OCC)C2)cc(OCC)c1C(C)=O` (some centres unmarked) [Example 1-95], the IC50 was 3.09 nM.

As to `CCOc1cc([C@@H](C)N(CCCCc2ccccc2)C(=O)NC2(C(=O)O)CC2)cc(OCC)c1C` [Example 1-17], the IC50 is 23.7 nM.

As to `CCOc1cc(C(=O)NC)cc(C(C)N(CCCCc2ccccc2)C(=O)NC2(C(=O)O)CC(F)(F)C2)c1` (centres unmarked) [Example 5-25], the IC50 is 43.2 nM.

In the case of `CCOc1cc([C@@H](C)N(CCCCc2ccccc2)C(=O)NC2(C(=O)O)CC(OC)C2)cc(OCC)c1C` (some centres unmarked) [Example 1-91], the IC50 is 1.99 nM.

In the case of `CCOc1cc(C(C)N(CCCCc2ccccc2)C(=O)NC2CCC(C(=O)O)C2)cc(OCC)c1C(C)=O` (centres unmarked) [Example 1-139], the IC50 is 3.09 nM.

Take `COc1cc(C(C)N(CCOC(C)c2ccccc2)C(=O)NC2(C(=O)O)CCC2)c(Cl)c(OC)c1C1CC1` (centres unmarked) [Example 5-138]: the IC50 was 3.21 nM.

`CCOc1cc([C@@H](C)N(CCCCC(C)C)C(=O)NC2(C(=O)O)CC(F)(F)C2)cc(OCC)c1C` [Example 4-2]: the IC50 is 8.34 nM.

In the case of `CCOc1cc([C@@H](C)N(CCCCc2ccccc2)C(=O)NC2CC(C(=O)O)N(C(C)=O)C2)cc(OCC)c1C(C)=O` (some centres unmarked) [Example 1-164], the IC50 was 38.4 nM.

In the case of `COc1cc(C(CO)N(CCCCc2ccccc2)C(=O)NC2(C(=O)O)Cc3ccccc3C2)cc(OC)c1C` (centres unmarked) [Example 3-9], the IC50 is 62.7 nM.

Regarding `CCOc1cc([C@@H](C)N(CCC2Cc3ccccc3C2)C(=O)NC2(C(=O)O)CC(OC)C2)c(C)c(OCC)c1C(C)=O` (some centres unmarked) [Example 4-24], the IC50 was 5.57 nM.

For the compound `CCOc1cc(C(C)N(CCOC(C)c2ccccc2)C(=O)NC2(C(=O)O)CCC2)c(C)c(OCC)c1C` (centres unmarked) [Example 5-194], the IC50 was 2.15 nM.

As for `CCOc1cc([C@H](C)N(CCCCc2ccccc2)C(=O)NC2(C(=O)O)Cc3ccccc3C2)cc(OCC)c1C` [Example 1-124, 2-({[(1S)-1-(3,5-Diethoxy-4-Methylphenyl)Ethyl](4-Phenylbutyl) Carbamoyl}Amino)-2,3-Dihydro-1H-Indene-2-Carboxylic Acid], the IC50 is 237 nM.

Regarding `CCOc1cc(C(C)N(CCCCc2ccccc2)C(=O)NC2(c3nn[nH]n3)CC(F)(F)C2)c(Cl)c(OCC)c1C(C)=O` (centres unmarked) [10-8], the IC50 was 9.3 nM.

Turning to `CCOc1cc(C(C)N(CCO[C@@H](C)c2ccccc2)C(=O)NC2(C(=O)O)CC(OCC)C2)c(C)c(OCC)c1C1CC1` (some centres unmarked) [Example 5-217], the IC50 is 1.65 nM.

Consider `CCOc1cc([C@@H](C)N(CCCCc2ccccc2)C(=O)NC2(C(=O)O)CC(N3CCCC3)C2)cc(OCC)c1C` (some centres unmarked) [Example 1-108], for which the IC50 was 512 nM.

Turning to `CCOc1cc([C@@H](C)N(CCO[C@@H](C)c2ccccc2)C(=O)N[C@]2(C(=O)O)C[C@@H](OCC)C2)cc(OCC)c1C1CC1` [Example 4-138, trans-1-[([(1R)-1-(4-cyclopropyl-3,5-diethoxyphenyl)ethyl]{2-[(1S)-1-phenylethoxy]ethyl}carbamoyl)amino]-3-ethoxycyclobutane-1-carboxylic acid], the IC50 is 2.91 nM.

`COc1cc(C(C)N(CCCn2cc(C)cn2)C(=O)NC2(C(=O)O)CC(F)(F)C2)cc(OC)c1C` (centres unmarked) [Example 4-26]: the IC50 is 1830 nM.

Take `CCOc1cc(C(C)N(CCO[C@@H](C)c2ccccc2)C(=O)NC2(C(=O)OC)CC(OCC)C2)c(Cl)c(OCC)c1C(C)=O` (some centres unmarked) [Example 6-5]: the IC50 is 272 nM.

Consider `COc1cc(C(C)N(CCO[C@@H](C)c2ccccc2)C(=O)NC2(C(=O)O)CC(F)(F)C2)cc(OC)c1C1CC1` (some centres unmarked) [Example 5-148], for which the IC50 was 3.4 nM.

As to `CCOc1cc([C@@H](C)N(CCC(F)(F)Cc2ccccc2)C(=O)NC2(C(=O)O)CC(OC)C2)cc(OCC)c1C(C)=O` (some centres unmarked) [Example 4-90], the IC50 was 10.1 nM.

Turning to `CCOc1cc(C(C)N(CCCCc2ccccc2)C(=O)NC2(C(=O)O)CC(F)(F)C2)cc(OCC)c1C(=O)C(F)(F)F` (centres unmarked) [Example 1-59], the IC50 is 14.9 nM.

With `CCOc1cc([C@@H](C)N(CCCCc2ccccc2)C(=O)NC2(C(=O)O)Cc3ccccc3C2)cc(OCC)c1C` [Example 1-123, 2-({[(1R)-1-(3,5-Diethoxy-4-Methylphenyl)Ethyl](4-Phenylbutyl) Carbamoyl}Amino)-2,3-Dihydro-1H-Indene-2-Carboxylic Acid], the IC50 is 12.7 nM.

`CCOc1cc(C(C)N(CCO[C@@H](C)c2ccccc2)C(=O)NC2(C(=O)OC)CC(F)(F)C2)c(Cl)c(OCC)c1C(C)=O` (some centres unmarked) [Example 6-7]: the IC50 was 443 nM.

In the case of `CCOc1cc([C@@H](C)N(CCCCc2ccccc2)C(=O)NC2(C(=O)O)CCS(=O)(=O)CC2)cc(OCC)c1C` [Example 1-157], the IC50 was 3.24 nM.

Regarding `CCOc1cc([C@@H](C)N(CCCCc2ccccc2)C(=O)NC2(C(=O)O)CC(OC)C2)cc(OCC)c1C(C)O` (single isomer, unassigned) [Example 1-89], the IC50 is 2.21 nM.

As to `CCOc1cc(C(C)N(CCCC(F)(F)c2ccccc2)C(=O)NC2(C(=O)O)CC2)cc(OCC)c1C(C)O` (centres unmarked) [Example 4-48], the IC50 was 2.55 nM.

Take `CCOc1cc([C@@H](C)N(CCO[C@@H](C)c2ccccc2)C(=O)NC2(C(=O)O)CC(OC)C2)cc(OCC)c1C(C)O` (some centres unmarked) [Example 4-123]: the IC50 was 7.82 nM.

Take `CCOc1cc(C(C)N(CCCCc2ccccc2)C(=O)NC2(C(=O)O)CC(F)(F)C2)cc(OCC)c1C(C)=O` (centres unmarked) [Example 1-56]: the IC50 is 33 nM.

Turning to `CCOc1cc([C@@H](C)N(CCCCc2cccc(OC)c2)C(=O)NC2(C(=O)O)CC(F)(F)C2)cc(OCC)c1C` [Example 4-18, 1-({[(1R)-1-(3,5-Diethoxy-4-Methylphenyl)Ethyl][4-(3-Methoxyphenyl)Butyl]Carbamoyl}Amino)-3,3-Difluorocyclobutane-1-Carboxylic Acid], the IC50 is 18.1 nM.

Consider `CCOc1cc(C(C)N(CCOCc2ccccc2)C(=O)NC2(C(=O)O)CCOCC2)c(Cl)c(OCC)c1C1CC1` (centres unmarked) [Example 5-225], for which the IC50 is 0.809 nM.

For `CCOc1cc([C@@H](C)N(CCCCc2cccc(C)c2)C(=O)NC2(C(=O)O)CC(F)(F)C2)cc(OCC)c1C` [Example 4-16], the IC50 is 4.05 nM.

`CCOc1c(C(C)=O)ccc([C@@H](C)N(CCCCc2ccccc2)C(=O)NC2(C(=O)O)CC2)c1C` [Example 1-19]: the IC50 is 4.1 nM.

For `CCOc1cc([C@@H](C)N(CCc2ccc(OC)cc2)C(=O)NC2(C(=O)O)CC(F)(F)C2)cc(OCC)c1C` [Example 4-20], the IC50 is 148 nM.

For the compound `CCOc1cc([C@@H](C)N(CCC2Cc3ccccc3C2)C(=O)NC2(C(=O)O)CC(OC)C2)cc(OCC)c1C(C)=O` (some centres unmarked) [Example 4-22], the IC50 is 7.62 nM.

Turning to `CCOc1cc([C@@H](C)N(CCO[C@@H](C)c2ccccc2)C(=O)NC2(C(=O)O)CCOCC2)cc(OCC)c1C(C)=O` [Example 4-142], the IC50 was 5.9 nM.

In the case of `CCOc1cc(C(C)N(CCCCc2ccccc2)C(=O)NC2(C(=O)O)CC(F)(F)C2)cc(OCC)c1C(N)=O` (centres unmarked) [Example 1-40, 1-({[1-(4-Carbamoyl-3,5-Diethoxyphenyl)Ethyl](4-Phenylbutyl) Carbamoyl}Amino)-3,3-Difluorocyclobutane-1-Carboxylic Acid], the IC50 is 103 nM.

On to `CCOc1cc([C@@H](C)N(CCCc2ccccn2)C(=O)NC2(C(=O)O)CC(F)(F)C2)cc(OCC)c1C` [Example 4-27], for which the IC50 was 220 nM.

On to `CCOc1cc([C@@H](C)N(CCC(F)(F)Cc2ccccc2)C(=O)NC2(C(=O)O)CC(F)(F)C2)c(Cl)c(OCC)c1C(C)=O` [Example 5-40], for which the IC50 is 4.63 nM.

With `CCOc1cc([C@@H](C)N(CCc2ccc(Cl)cc2)C(=O)NC2(C(=O)O)CC(F)(F)C2)cc(OCC)c1C` [Example 4-11], the IC50 is 126 nM.

With `COc1cc(C(C)N(CCOCc2ccccc2)C(=O)NC2(C(=O)O)CC(F)(F)C2)c(C)c(OC)c1C1CC1` (centres unmarked) [Example 5-146], the IC50 is 1.02 nM.

For the compound `CCOc1cc(C(C)N(CCCCc2ccc(F)cc2)C(=O)NC2(C(=O)O)CC(F)(F)C2)cc(OCC)c1C` (centres unmarked) [Example 4-9], the IC50 was 11.6 nM.

The record behind these values is patent US12338203B2 (TAISHO PHARMACEUTICAL CO., LTD., priority 2019, dated 2025).
